Columns and labels:
EGFR = target: T1, EGFR (Homo sapiens, UniProt P00533); assay: EGFR ELISA assay (in vitro kinase activity, EGFR captured from A431 cell lysate); type: biochemical; parameters: concentration or dose not given beside the values
T1 construct: Add 7 ug A431 cell lysate per well (EGFR source); endogenous in cells; host or cells: A431
Procedure, shortened: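 EGFR from A431 lysate was captured on anti-EGFR antibody-coated plates and preincubated with compounds for 30 min. Autophosphorylation ran 5 min with 3 uM ATP and 5 mM MnCl2 (final), stopped with 20 mM EDTA. Phosphotyrosine was detected by anti-pTyr ELISA with ABTS/H2O2, read at 410 nm.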

MET = MET biochemical kinase assay; parameters: species or system human; concentration or dose not given beside the values
Procedure, shortened: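 Colorimetric signal from an HRP-linked anti-phosphotyrosine antibody with TMB measures phosphate incorporated into immobilised MET. The receptor is pulled from lysates by a polyclonal antibody against its cytoplasmic domain, then reacts in ATP- and metal-containing buffer with test compound.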

PDGF-R = PDGF-R (Homo sapiens, UniProt P09619); assay: PDGF-R ELISA; type: cell-based
Chain of PDGF-R (P09619 33-1106, species assumed): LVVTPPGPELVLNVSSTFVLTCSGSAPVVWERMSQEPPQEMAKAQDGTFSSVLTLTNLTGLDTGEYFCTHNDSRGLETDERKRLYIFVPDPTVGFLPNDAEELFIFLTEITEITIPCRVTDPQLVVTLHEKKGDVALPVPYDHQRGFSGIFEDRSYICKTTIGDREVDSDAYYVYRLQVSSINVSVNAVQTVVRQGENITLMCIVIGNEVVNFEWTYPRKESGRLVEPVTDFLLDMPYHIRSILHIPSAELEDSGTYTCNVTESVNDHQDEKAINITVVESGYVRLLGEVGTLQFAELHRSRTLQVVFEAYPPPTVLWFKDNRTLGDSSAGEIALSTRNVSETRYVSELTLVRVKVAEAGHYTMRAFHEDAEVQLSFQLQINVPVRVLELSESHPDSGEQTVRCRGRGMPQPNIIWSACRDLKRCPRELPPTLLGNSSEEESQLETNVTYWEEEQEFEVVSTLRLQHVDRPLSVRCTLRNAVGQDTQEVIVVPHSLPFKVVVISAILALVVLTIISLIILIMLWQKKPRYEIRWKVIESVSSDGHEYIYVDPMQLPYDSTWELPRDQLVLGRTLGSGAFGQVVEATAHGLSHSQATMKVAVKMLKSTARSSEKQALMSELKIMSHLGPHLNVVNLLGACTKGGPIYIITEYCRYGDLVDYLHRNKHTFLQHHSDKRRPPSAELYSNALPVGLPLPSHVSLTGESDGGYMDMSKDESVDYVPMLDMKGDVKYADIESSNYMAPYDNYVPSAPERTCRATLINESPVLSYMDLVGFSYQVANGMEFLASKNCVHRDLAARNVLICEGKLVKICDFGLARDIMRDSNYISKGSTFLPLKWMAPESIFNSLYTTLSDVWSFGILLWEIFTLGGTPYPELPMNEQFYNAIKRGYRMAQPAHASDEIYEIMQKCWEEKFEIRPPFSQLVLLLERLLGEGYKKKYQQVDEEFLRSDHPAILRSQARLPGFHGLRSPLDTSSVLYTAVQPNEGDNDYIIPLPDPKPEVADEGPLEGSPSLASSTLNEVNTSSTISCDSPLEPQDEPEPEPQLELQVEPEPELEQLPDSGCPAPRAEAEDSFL
Description: A PDGF-R ELISA is described in International Patent Publication No. WO 96/40116, published December 19, 1996 by Tang et al.

T1 sequence (P00533 25-1210): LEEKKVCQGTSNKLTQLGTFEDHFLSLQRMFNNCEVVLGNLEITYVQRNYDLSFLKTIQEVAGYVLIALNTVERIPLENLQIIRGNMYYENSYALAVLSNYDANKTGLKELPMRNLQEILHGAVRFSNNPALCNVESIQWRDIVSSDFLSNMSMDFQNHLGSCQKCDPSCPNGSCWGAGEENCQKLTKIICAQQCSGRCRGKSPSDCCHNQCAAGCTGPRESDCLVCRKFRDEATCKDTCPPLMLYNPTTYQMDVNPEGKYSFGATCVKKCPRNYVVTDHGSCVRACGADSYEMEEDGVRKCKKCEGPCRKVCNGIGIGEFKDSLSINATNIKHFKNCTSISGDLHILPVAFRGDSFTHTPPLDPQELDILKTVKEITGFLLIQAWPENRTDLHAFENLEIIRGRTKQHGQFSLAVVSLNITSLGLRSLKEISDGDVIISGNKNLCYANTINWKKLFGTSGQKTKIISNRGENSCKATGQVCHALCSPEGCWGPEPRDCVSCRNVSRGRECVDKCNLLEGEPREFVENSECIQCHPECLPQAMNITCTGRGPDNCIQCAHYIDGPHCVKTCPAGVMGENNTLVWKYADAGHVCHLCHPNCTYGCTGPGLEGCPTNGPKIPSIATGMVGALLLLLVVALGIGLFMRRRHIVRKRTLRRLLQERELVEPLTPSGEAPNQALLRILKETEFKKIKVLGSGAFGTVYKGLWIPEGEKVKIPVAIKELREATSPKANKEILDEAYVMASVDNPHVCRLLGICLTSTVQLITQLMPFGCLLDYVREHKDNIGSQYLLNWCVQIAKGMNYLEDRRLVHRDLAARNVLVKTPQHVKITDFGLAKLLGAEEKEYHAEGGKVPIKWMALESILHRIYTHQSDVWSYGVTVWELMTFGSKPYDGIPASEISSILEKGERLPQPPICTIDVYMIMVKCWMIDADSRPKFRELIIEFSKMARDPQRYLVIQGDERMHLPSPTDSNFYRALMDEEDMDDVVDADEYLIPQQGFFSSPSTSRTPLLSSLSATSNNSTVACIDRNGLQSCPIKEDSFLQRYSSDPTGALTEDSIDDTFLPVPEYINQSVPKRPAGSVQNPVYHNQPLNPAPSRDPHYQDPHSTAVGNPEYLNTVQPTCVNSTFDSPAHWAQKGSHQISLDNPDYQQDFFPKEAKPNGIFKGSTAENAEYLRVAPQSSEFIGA

Structure (SMILES) | Biochem EGFR %Inhibition (EGFR) | Met Kinase % Inhibition (MET) | PDGF Kinase %Inhibition (PDGF-R)
O=C1Nc2ccc(S(=O)(=O)Nc3ccc(C(F)(F)F)cc3)cc2C1=Cc1coc2c(Br)cc(Br)cc2c1=O [10730/E09] | 21.7% | 33.9% | 20.3%
COc1cc(C=C2C(=O)Nc3ccc(S(=O)(=O)N4CCOCC4)cc32)cc(OC)c1OC [10730/F04] | -4.8% | 36.0% | 28.7%
O=C1Nc2ccc(CCCl)cc2C1=Cc1cccc(Oc2ccccc2)c1 [10729/G06] | 15.2% | 26.0% | 11.8%
CNS(=O)(=O)c1ccc2c(c1)C(=Cc1ccc(-c3ccccc3Cl)o1)C(=O)N2 [10730/D07] | 43.0% | 52.5% | 5.0%
COc1ccc(C=C2C(=O)Nc3ccc(S(=O)(=O)N4CCOCC4)cc32)c(OC)c1OC [10730/F02] | 2.9% | -6.2% | 20.3%
O=C1Nc2ccc(I)cc2C1=Cc1ccco1 [10718/B10] | 13.7% | 83.6% | –
COc1ccc2ccccc2c1C=C1C(=O)Nc2ccc(CCCl)cc21 [10729/G02] | -4.8% | 31.3% | 16.7%
Cc1c(Br)ccc2c1C(=Cc1coc3c(Br)cc(Br)cc3c1=O)C(=O)N2 [10730/C09] | 28.2% | 42.9% | 18.1%
O=C1Nc2ccc(S(=O)(=O)Nc3ccc(C(F)(F)F)cc3)cc2C1=Cc1ccc(N2CCCC2)cc1 [10729/E10] | 50.3% | 7.5% | 11.8%
Cc1ccsc1C=C1C(=O)Nc2ccc(CCCl)cc21 [10729/G05] | 4.4% | 22.6% | 9.9%
COc1cc(C=C2C(=O)Nc3ccc(Br)c(C)c32)cc(OC)c1OC [10730/C04] | 0.1% | 43.2% | 15.5%
CC(=O)n1cc(C=C2C(=O)Nc3ccc(S(=O)(=O)Nc4ccc(C(F)(F)F)cc4)cc32)c2ccccc21 [10730/E05] | 15.8% | 49.0% | 28.7%
O=C1Nc2ccc(I)cc2C1=Cc1ccc(Cl)c([N+](=O)[O-])c1 [10718/B08] | 28.9% | 63.4% | –
O=C1Nc2ccc(S(=O)(=O)N3CCOCC3)cc2C1=Cc1coc2ccc(Cl)cc2c1=O [10730/F06] | -0.6% | 56.5% | 3.2%
O=C1Nc2ccc(CCCl)cc2C1=Cc1cccnc1 [10729/G08] | 6.0% | 39.9% | 0.8%
O=C1Nc2ccc(S(=O)(=O)Nc3ccc(C(F)(F)F)cc3)cc2C1=Cc1cc2ccccc2nc1Cl [10730/E08] | 6.2% | 40.3% | 48.4%
Cc1cc(C=C2C(=O)Nc3ccc(I)cc32)oc1C [10730/B11] | 70.2% | 81.7% | -13.9%
COC1CC(C=C2C(=O)Nc3ccc(I)cc32)C(OC)O1 (stereo not drawn) [10730/B10] | 15.8% | 69.5% | 19.0%
COc1cc(OC)c(OC)cc1C=C1C(=O)Nc2ccc(S(=O)(=O)Nc3ccc(C(F)(F)F)cc3)cc21 [10730/E03] | 65.3% | 53.3% | 14.6%
CNS(=O)(=O)c1ccc2c(c1)C(=Cc1cc(OC)c(OC)c(OC)c1)C(=O)N2 [10730/D04] | 10.4% | 33.6% | 20.8%
COc1ccc(C=C2C(=O)Nc3ccc(Br)c(C)c32)c(OC)c1OC [10730/C02] | 2.7% | 31.2% | 26.5%
O=C1Nc2ccc(I)cc2C1=Cc1cc2ccccc2nc1Cl [10730/B08] | 48.4% | 91.8% | 0.2%
COc1cc(OC)c(OC)cc1C=C1C(=O)Nc2c(Br)cc(Br)cc21 [10730/A03] | 34.4% | 62.3% | -11.2%
CC(=O)n1cc(C=C2C(=O)Nc3c(Br)cc(Br)cc32)c2ccccc21 [10730/A05] | 18.6% | 42.7% | 2.8%
CNS(=O)(=O)c1ccc2c(c1)C(=CC1CC(OC)OC1OC)C(=O)N2 (stereo not drawn) [10730/D10] | 16.7% | 18.5% | -3.3%

Structure (SMILES) | Biochem EGFR %Inhibition (EGFR) | Met Kinase % Inhibition (MET) | PDGF Kinase %Inhibition (PDGF-R)
COc1cc(OC)c(OC)cc1C=C1C(=O)Nc2ccc(S(=O)(=O)N3CCOCC3)cc21 [10730/F03] | 10.4% | -0.6% | 1.5%
O=C1Nc2ccc(CCCl)cc2C1=Cc1ccncc1 [10729/G09] | 20.8% | 49.6% | 1.9%
CNS(=O)(=O)c1ccc2c(c1)C(=Cc1coc3c(Br)cc(Br)cc3c1=O)C(=O)N2 [10730/D09] | 45.1% | 59.1% | -1.6%
O=C1Nc2c(Br)cc(Br)cc2C1=Cc1ccc(Br)cc1 [10717/A08] | 39.1% | 21.7% | –
CNS(=O)(=O)c1ccc2c(c1)C(=Cc1cc(OC)c(OC)cc1OC)C(=O)N2 [10730/D03] | 9.9% | 34.2% | 19.0%
Cc1c(Br)ccc2c1C(=Cc1coc3ccc(Cl)cc3c1=O)C(=O)N2 [10730/C06] | 8.5% | 34.7% | 7.6%
COC1CC(C=C2C(=O)Nc3ccc(Br)c(C)c32)C(OC)O1 (stereo not drawn) [10730/C10] | 20.5% | 40.3% | 44.4%
CSc1ccc(C=C2C(=O)Nc3ccc(CCCl)cc32)cc1 [10729/G04] | 52.9% | 18.2% | 1.6%
Cc1cc(C=C2C(=O)Nc3ccc(Br)c(C)c32)oc1C [10730/C11] | 38.4% | 66.6% | 16.4%
O=C1Nc2c(Br)cc(Br)cc2C1=Cc1coc2ccc(Cl)cc2c1=O [10730/A06] | 6.7% | 61.0% | 6.3%
O=C1Nc2ccc(S(=O)(=O)Nc3ccc(C(F)(F)F)cc3)cc2C1=Cc1coc2ccc(Cl)cc2c1=O [10730/E06] | 1.5% | 52.8% | 26.0%
CNS(=O)(=O)c1ccc2c(c1)C(=Cc1coc3ccc(Cl)cc3c1=O)C(=O)N2 [10730/D06] | 35.3% | 55.9% | -2.0%
O=C1Nc2ccc(I)cc2C1=Cc1coc2ccc(Cl)cc2c1=O [10730/B06] | 25.0% | 71.3% | 7.6%
Cc1cc(C=C2C(=O)Nc3c(Br)cc(Br)cc32)oc1C [10730/A11] | 56.4% | 91.0% | -6.4%
O=C1Nc2ccc(CCCl)cc2C1=CC1C=CCCC1 (stereo not drawn) [10729/G11] | 23.4% | 15.4% | 3.8%
COc1cc(Br)c(O)c(C=C2C(=O)Nc3ccc(Br)c(C)c32)c1 [10718/C03] | 41.3% | 95.7% | –
O=C1Nc2c(Br)cc(Br)cc2C1=Cc1coc2c(Br)cc(Br)cc2c1=O [10730/A09] | 1.1% | 69.5% | -4.7%
Cc1c(Br)ccc2c1C(=Cc1ccc3ccccc3c1O)C(=O)N2 [10718/C04] | 14.8% | 93.1% | –
COc1ccc(C=C2C(=O)Nc3ccc(S(=O)(=O)Nc4ccc(C(F)(F)F)cc4)cc32)c(OC)c1OC [10730/E02] | 17.7% | 18.8% | 16.4%
CNS(=O)(=O)c1ccc2c(c1)C(=Cc1cc(C)c(C)o1)C(=O)N2 [10730/D11] | 2.0% | 9.7% | -0.7%
CCOC(=O)c1c(C)[nH]c(C=C2C(=O)Nc3ccc(Br)c(C)c32)c1C [10718/C02] | -21.9% | 29.6% | –
Cc1c(O)ccc(C=C2C(=O)Nc3ccc(I)cc32)c1O [10718/B09] | -0.8% | 52.9% | –
COC(=O)c1[nH]c(C)c(C=C2C(=O)Nc3ccc(I)cc32)c1C(=O)OC [10718/B07] | 9.9% | 53.7% | –
O=C1Nc2ccc(I)cc2C1=Cc1ccc([N+](=O)[O-])o1 [10718/B11] | 30.3% | 69.6% | –

From patent EP1247803A2, “Indolinone compounds suitable for modulation of protein kinases” (Sugen, Inc., priority 1996, dated 1998)
